Experiments:
[1] = Stability in water or saline (1 mg/ml) at 37° C., purity by LC/MS and HPLC; format: physicochemical; settings: TFA salt form
[2] = biological target: T1, human Y1 receptor (Homo sapiens, UniProt P25929); test: NPY receptor functional assay (cAMP, HEK-CNG cells, ACTOne membrane potential dye); format: cell-based
T1 sequence (P25929 1-384): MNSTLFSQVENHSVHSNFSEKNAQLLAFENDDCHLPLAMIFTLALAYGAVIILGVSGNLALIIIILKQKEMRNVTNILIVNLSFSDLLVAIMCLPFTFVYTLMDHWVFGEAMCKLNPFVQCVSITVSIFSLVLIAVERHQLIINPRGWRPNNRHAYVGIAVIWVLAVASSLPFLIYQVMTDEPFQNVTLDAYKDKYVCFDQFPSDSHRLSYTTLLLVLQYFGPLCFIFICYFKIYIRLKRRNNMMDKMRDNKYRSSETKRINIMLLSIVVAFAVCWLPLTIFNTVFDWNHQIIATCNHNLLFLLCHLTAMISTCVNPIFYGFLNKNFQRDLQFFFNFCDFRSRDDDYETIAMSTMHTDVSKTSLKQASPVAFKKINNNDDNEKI
Description: The NPY family of G-protein coupled receptors include Y1, Y2, Y4, and Y5 in humans and rats. […] Following agonist binding, the receptor-G protein complex activates a downstream intracellular signaling cascade which leads to inhibition of adenylate cyclase and a reduction in intracellular cAMP levels.
HEK-CNG cells stably expressing the human or rat Y1, Y2, Y4 or Y5 receptors (Codex Biosolutions) were used to characterize the functional potency of peptide agonists using the ActOne™ membrane potential dye kit (Codex Biosolutions). In addition to each NPY receptor, each cell line encodes a proprietary exogenous Cyclic Nucleotide-Gated (CNG) channel (Codex Biosolutions). The channel is activated by elevated intracellular levels of cAMP, resulting in ion flux and cell membrane depolarization which can be detected with a calcium sensitive dye or fluorescent membrane potential (MP) dye. Cells were carried in growth media containing 90% DMEM, 10% FBS, 250 mcg/mL G418 and 1 mcg/mL puromycin for no more than 15 passages.
Prior to testing, cells were counted and dispensed at 14,000 cells per well (Y1, Y4 and Y5) or 28,000 cells per well (Y2) into black 384 well Poly-D-Lysine plates at 20 mcL per well. Covered plates were then incubated at room temperature for 30 minutes followed by an overnight incubation at 37° C. in 5% C02. The following day, media was removed and wells were washed once with 40 mcL Dulbecco's phosphate buffered saline. […] Ten microliters of experimental peptide or peptide standard was added in triplicate to wells and incubated for 50 minutes at room temperature in the dark. Following this incubation step, plates were read again as before (final read).
NPY receptor activation, leading to a reduction in intracellular cAMP levels, is detected as a decrease in isoproteranol induced fluorescent signal. Peptide standard and experimental values were initially transformed in excel using the formula: final read/initial read. […] Normalized data was analyzed from triplicate tests and used to estimate the EC50 for each test peptide on each receptor. Data was fit in GraphPad Prism software (v8.2.1) using a 3-parameter logistic curve model: Y=Bottom+(Top−Bottom)/(1+10^((LogEC50−X))). EC50 values were converted to pEC50 values using the formula: pEC50=−Log(EC50).

[3] = biological target: T2, human Y2 receptor (Homo sapiens, UniProt P49146); test: as above; format: cell-based; settings: NPY2R pEC50, HEK-CNG cells; standard PYY(3-36); species (human or rat) not given
T2 sequence (P49146 1-381): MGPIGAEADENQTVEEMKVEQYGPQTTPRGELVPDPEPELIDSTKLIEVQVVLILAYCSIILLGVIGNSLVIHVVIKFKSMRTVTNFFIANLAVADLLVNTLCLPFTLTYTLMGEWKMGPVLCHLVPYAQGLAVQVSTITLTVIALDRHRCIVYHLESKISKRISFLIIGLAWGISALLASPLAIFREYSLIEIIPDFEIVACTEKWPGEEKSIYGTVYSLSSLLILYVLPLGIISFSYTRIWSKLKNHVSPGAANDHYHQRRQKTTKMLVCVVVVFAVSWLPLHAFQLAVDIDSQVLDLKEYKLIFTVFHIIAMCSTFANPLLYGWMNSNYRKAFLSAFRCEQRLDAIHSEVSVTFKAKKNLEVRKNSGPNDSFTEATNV
In short: (§1)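 HEK-CNG cells stably expressing each human receptor; peptides added in triplicate for 50 minutes at room temperature, with agonism read as decreased isoproterenol-induced membrane potential dye signal (final/initial read).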

[4] = biological target: T3, human Y5 receptor (Homo sapiens, UniProt Q15761); test: as above; format: cell-based; settings: NPY5R pEC50, HEK-CNG cells; standard NPY; species (human or rat) not given
T3 sequence (Q15761 1-445): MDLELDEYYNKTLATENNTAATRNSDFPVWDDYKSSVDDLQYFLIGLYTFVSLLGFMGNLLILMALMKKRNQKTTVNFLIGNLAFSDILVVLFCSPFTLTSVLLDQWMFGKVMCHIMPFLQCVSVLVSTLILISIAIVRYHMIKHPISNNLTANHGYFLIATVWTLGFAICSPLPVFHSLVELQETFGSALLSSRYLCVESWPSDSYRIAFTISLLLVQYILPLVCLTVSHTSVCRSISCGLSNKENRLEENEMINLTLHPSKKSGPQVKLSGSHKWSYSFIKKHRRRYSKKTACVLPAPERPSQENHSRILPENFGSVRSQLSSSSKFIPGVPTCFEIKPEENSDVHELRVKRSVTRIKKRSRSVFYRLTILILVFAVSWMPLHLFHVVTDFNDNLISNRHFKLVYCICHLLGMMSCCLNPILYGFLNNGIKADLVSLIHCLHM
In short: as §1

For `CC(C)C[C@H](NC(=O)[C@H](Cc1ccc(O)cc1)NC(=O)[C@H](Cc1c[nH]cn1)NC(=O)[C@H](CCCNC(=N)N)NC(=O)[C@H](CC(C)C)NC(=O)[C@H](CC(=O)O)NC(=O)[C@@H](CCCCNC(=O)CC[C@H](NC(=O)CC[C@H](NC(=O)CCCCCCCCCCCCCCCCCCC(=O)O)C(=O)O)C(=O)O)NC(=O)[C@H](Cc1ccc(O)cc1)NC(=O)[C@H](Cc1ccc(O)cc1)NC(=O)[C@H](CCCNC(=N)N)NC(=O)[C@H](CC(N)=O)NC(=O)[C@H](Cc1c[nH]c2ccccc12)NC(=O)[C@H](CCC(=O)O)NC(=O)[C@H](CCC(=O)O)NC(=O)[C@@H]1CCCN1C(=O)[C@H](CO)NC(=O)[C@H](C)NC(=O)[C@H](CC(=O)O)NC(=O)[C@H](CCCCN)NC(=O)CNC(=O)[C@@H]1CCCN1C(=O)[C@H](C)NC(=O)[C@H](CCC(=O)O)NC(=O)[C@@H]1CCCN1C(=O)[C@H](CCCCN)NC(=O)[C@@H]1CCCN1)C(=O)N[C@@H](CC(N)=O)C(=O)N[C@@H](Cc1c[nH]c2ccccc12)C(=O)N[C@@H](CC(C)C)C(=O)N[C@H](C(=O)N[C@@H](CCCNC(=N)N)C(=O)N[C@@H](CCC(N)=O)C(=O)N[C@@H](CCCNC(=N)N)C(=O)N[C@@H](Cc1ccccc1)C(N)=O)[C@@H](C)O` [Compound A14], the “Stability (37° C./RT, T0: Mar. 25, 2020)” value [1] was 94.2, the EC50 [2] was 3.16 nM and the EC50 [3] was 0.0794 nM. It also gave an EC50 [4] of 5.01 nM.

Reference: patent US12122816B2, “Long acting peptide tyrosine tyrosine (PYY) analogs and methods of use” (Intarcia Therapeutics, Inc., priority 2020, dated 2024)
